Active and inactive are the calls of the source. Cut-off read from the data, not from the text of the source, for most assays here: actives have a measured EC50 and inactives only a lower limit.
Key:
[1] = DRD fibroblast viability loss – cell-based, non-viral oncogenic, luminescence, dose response (AID 1934); format: functional; conditions: Homo sapiens
HT-1080 = test: HT1080 cell viability loss – fluorescence readout (AID 620); format: functional, cell-based; conditions: Homo sapiens
BJ [2] = test: cells; format: functional, cell-based; conditions: Homo sapiens
[3] = reduction of Shn3 3'UTR-driven luciferase in osteoblasts – cell-based, Clone20 osteoblasts, firefly luciferase, cherry-picked, dose response (AID 624132); format: functional;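 note: firefly luciferase luminescence from reporter carrying the Shn3 3'UTR in osteoblasts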
[4] = loss of viability in HepG2 cells – cell-based, CellTiter-Glo, cherry-picked, cytotoxicity control for Shn3 inhibitor project, dose response (AID 624134); format: functional
BJ [5] = test: BJ-TERT fibroblast viability loss – cell-based, RAS-independent, luminescence, dose response (AID 1933); format: functional; conditions: Homo sapiens
[6] = target: T1, Luciferin 4-monooxygenase (Photinus pyralis, UniProt P08659); test: Counter Screen for Luciferase-based Assay Positives. [Related pubchem assays: 620, 618, 411 ]
[7] = HEK-293T viability loss after treatment – luminescence, T-cell screen hits, cytotoxicity control for TCR NF-kB inhibitor project, dose response (AID 489026); format: functional, cell-based;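 note: cells exposed to compound about 14 hours before the viability readout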
BJ [8] = test: BJ-TERT-LT-ST fibroblast viability loss – cell-based, RAS-independent, luminescence, dose response (AID 1935); format: functional; conditions: Homo sapiens;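 note: BJ fibroblasts immortalized with TERT plus LT and ST oncogenes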
[9] = target: T1, Luciferin 4-monooxygenase; test: inhibition of purified Photinus pyralis luciferase – biochemical, luminescence, dose response (AID 1891)
[10] = Luminescence Cell-Based Dose Confirmation HTS to Identify Inhibitors of Platelet Dense Granule Release. [Related pubchem assays: 1663 (Primary HTS), 1678 (Summary of Project)]; format: functional
[11] = A Cell Based Secondary Assay To Explore Cytotoxicity of Compounds that Sensitize Mycobacterium Tuberculosis to Beta-Lactam Antibiotics.; format: functional
[12] = viability of PTEN-deleted HCT116 cells – cell-based, HCT116 PTEN knockout, dose response (AID 1047); format: functional;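 note: HCT116 colon tumor cells with PTEN knocked out; cells exposed to compound for 60 hours before readout; potency for loss of cell viability measured by luminescence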
[13] = viability of HCT116 lacking mutant beta-catenin – cell-based, human colon tumor, dose response (AID 1045); format: functional;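 note: HCT116 colon tumor cells with beta catenin knocked out; cells exposed to compound for 60 hours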
[14] = target: Voltage-dependent T-type calcium channel subunit alpha-1H (Homo sapiens, UniProt O95180); format: functional;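 note: channel activity triggered by adding a high calcium stimulation buffer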
[15] = NIH3T3 cell viability loss – ATP luminescence, mouse fibroblasts, counter-screen, dose response (AID 2010); format: functional, cell-based;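 note: cells exposed to compound for about 90 hours before reading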
[16] = Trypanosoma cruzi growth suppression in host cells – NIH3T3 host cells, beta-gal luminescence, confirmation (AID 2044); format: functional, cell-based;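 note: intracellular parasites grown in NIH/3T3 mouse fibroblasts as host cells; luminescent beta-galactosidase reporter signal from transgenic T. cruzi replicating inside host cells; inhibitors lower the luminescence signal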
[17] = HEK-293T cell viability reduction – luminescence, B-cell screen hits, cytotoxicity control for BCR NF-kB inhibitor project, dose response (AID 489021); format: functional, cell-based;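 note: HEK-293T cells carrying an NF-kB luciferase reporter; cells exposed to compound for about 14 hours before viability readout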
[18] = Luminescence Cell-Based Dose Response HTS to Identify Inhibitors of 5'UTR Stem-Loop Driven Prion Protein mRNA Translation in H4 Neuroglioblastoma Cells. [Related pubchem assays: 1827 (Project Summary), 1813 (Primary HTS)]; format: functional
[19] = luciferase reporter signal suppression in cells – H4 neuroglioma cells, luminescence, dose response (AID 1990); format: functional, cell-based
BJ [20] = test: growth inhibition of engineered Ras-driven BJ cells – cell-based, alamar blue fluorescence, cherrypicked samples, dose response (AID 2631); format: functional; conditions: Homo sapiens;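 note: confirmatory dose-response assay in RAS-dependent BJ fibroblasts engineered with TERT, LT and ST, with cytotoxicity read by fluorescence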
HEK293 = test: EBV LMP1 TES2 canonical NF-kB signalling blockers – cell-based, HEK293, luciferase, cherry-pick, dose response (AID 588343); format: functional; conditions: Homo sapiens
[21] = alpha-synuclein stem-loop luciferase translation blockers – H4 neuroglioma cells, luminescence, confirmation (AID 1988); format: functional, cell-based
INS1 = test: INS-1E survival protection against cytokine death – cell-based, luminescence, retest, dose response (AID 449756); format: functional; conditions: Rattus norvegicus;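 note: cell death triggered by IL-1 beta plus TNF-alpha plus IFN-gamma mixture; protective hits raise ATP signal compared with cytokine alone wells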

T1 sequence (P08659 whole entry): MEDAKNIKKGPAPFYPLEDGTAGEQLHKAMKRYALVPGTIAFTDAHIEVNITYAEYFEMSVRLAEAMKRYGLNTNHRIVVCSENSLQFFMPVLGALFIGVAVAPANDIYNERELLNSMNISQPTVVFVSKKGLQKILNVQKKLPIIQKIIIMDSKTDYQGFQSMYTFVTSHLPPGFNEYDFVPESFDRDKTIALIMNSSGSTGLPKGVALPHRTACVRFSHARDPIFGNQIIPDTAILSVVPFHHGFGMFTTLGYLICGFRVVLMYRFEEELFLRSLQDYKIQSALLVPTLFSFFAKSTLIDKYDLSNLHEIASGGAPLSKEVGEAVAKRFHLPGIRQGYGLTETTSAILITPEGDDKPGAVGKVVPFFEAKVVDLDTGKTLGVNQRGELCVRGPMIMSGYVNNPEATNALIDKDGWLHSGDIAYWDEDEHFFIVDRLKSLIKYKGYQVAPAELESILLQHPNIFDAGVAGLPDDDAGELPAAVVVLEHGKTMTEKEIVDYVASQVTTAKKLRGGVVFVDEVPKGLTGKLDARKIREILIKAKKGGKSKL
Sequence of Voltage-dependent T-type calcium channel subunit alpha-1H (O95180 whole entry): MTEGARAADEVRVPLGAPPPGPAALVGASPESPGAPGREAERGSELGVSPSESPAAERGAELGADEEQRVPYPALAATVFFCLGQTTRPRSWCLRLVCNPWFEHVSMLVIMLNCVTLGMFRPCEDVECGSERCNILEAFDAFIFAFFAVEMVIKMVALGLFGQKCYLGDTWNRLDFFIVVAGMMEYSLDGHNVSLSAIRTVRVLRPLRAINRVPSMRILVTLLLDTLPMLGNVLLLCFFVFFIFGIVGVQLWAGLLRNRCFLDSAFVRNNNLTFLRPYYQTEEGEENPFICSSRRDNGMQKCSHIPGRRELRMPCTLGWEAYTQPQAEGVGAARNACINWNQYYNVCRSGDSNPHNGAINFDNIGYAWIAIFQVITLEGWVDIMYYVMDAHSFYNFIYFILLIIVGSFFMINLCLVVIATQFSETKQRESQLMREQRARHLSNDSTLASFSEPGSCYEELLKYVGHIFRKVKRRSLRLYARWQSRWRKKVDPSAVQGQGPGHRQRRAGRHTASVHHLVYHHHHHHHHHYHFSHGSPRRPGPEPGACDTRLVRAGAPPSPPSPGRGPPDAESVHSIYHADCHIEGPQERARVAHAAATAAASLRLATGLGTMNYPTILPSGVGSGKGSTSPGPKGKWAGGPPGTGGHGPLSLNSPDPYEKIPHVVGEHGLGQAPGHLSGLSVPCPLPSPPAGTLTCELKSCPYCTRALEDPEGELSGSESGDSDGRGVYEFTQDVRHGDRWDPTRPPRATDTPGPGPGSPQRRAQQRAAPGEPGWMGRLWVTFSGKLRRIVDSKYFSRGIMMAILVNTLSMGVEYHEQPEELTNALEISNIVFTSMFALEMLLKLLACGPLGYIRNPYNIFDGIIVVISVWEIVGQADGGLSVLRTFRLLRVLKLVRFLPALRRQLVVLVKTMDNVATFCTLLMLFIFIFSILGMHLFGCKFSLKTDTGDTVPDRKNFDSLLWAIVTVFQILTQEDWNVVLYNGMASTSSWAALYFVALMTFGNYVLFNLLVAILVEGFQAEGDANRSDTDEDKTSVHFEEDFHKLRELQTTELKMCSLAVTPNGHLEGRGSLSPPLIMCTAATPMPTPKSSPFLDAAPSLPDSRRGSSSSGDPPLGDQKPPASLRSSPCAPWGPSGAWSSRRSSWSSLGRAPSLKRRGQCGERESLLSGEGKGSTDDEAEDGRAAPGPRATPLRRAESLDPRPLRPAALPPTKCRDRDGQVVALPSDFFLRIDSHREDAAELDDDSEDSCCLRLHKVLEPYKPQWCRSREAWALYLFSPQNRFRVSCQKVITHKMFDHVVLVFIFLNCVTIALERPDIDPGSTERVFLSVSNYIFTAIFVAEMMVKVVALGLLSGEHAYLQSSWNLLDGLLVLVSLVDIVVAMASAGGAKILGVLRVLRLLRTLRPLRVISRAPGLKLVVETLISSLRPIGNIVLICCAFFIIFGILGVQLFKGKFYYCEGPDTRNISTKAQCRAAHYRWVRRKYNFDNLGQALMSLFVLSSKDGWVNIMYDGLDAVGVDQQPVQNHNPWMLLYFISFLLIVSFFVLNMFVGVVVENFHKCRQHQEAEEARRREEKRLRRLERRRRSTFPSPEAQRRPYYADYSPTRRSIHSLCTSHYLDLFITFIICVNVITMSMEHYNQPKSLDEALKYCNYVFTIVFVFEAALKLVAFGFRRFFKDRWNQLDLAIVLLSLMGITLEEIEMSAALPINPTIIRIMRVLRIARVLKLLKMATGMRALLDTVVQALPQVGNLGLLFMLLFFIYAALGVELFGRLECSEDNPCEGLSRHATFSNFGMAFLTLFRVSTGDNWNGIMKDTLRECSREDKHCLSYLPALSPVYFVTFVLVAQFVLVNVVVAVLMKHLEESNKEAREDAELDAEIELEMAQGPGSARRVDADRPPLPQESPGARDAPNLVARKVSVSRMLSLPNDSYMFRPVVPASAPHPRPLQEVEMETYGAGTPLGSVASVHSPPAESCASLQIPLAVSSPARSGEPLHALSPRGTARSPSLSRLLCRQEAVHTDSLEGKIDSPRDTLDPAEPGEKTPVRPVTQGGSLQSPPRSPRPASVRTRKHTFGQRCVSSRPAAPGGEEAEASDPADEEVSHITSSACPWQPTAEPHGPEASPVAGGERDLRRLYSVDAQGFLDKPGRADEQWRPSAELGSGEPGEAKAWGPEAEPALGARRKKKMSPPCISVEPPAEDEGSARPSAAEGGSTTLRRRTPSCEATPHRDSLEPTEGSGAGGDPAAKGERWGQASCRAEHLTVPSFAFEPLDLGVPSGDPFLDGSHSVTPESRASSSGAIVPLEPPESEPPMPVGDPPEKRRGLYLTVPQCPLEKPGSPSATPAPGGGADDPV

For `Cc1ccc(-c2nc(-c3ccccn3)no2)cc1`, which EC50 [1] is on record?
The EC50 was 5.41 µM (active).

And the EC50 (HT-1080)?
The EC50 was > 50 µM (not active).

What about the EC50 (BJ [2]) of the same molecule?
Its EC50 is 5.39 µM (active).

What about the AC50 [3] of the same molecule?
The AC50 was 1.96 µM (active).

And the AC50 [4]?
The AC50 was 8.99 µM (active).

What about the EC50 (BJ [5]) of the same molecule?
Its EC50 is 7.04 µM (active).

What about the EC50 [6] of the same molecule?
The EC50 was 810 nM (active).

And the IC50 [7]?
Its IC50 is > 80 µM (inactive).

What about the EC50 (BJ [8]) of the same molecule?
The EC50 was 17.4 µM (active).

And the EC50 [9]?
The EC50 was 593 nM (active).

What about the EC50 [10] of the same molecule?
The EC50 was 2.52 µM (active).

For `C/C(=N/NC(=O)c1ccc(Cl)s1)c1ccc(NC(=O)COc2ccc(Cl)cc2)cc1`, which CC50 [11] is on record?
The CC50 was > 40 µM (active).

What about the EC50 [12] of the same molecule?
The EC50 was 24 µM (active).

And the EC50 [13]?
Its EC50 is 22.2 µM (active).

Which EC50 [14] does the source give for `Cc1ccc(-c2noc(CSc3nnc(Cc4ccccc4)n3-c3ccc(Cl)cc3)n2)cc1` here?
Its EC50 is 4.98 µM (active).

What does the source list for `Cc1ccc(NC(=O)C(Cc2ccccc2)N2C(=O)C3C4CCC(C4)C3C2=O)cc1Cl` (stereo not drawn)?
EC50 [15]: > 60 µM (not active); EC50 [14]: 5.73 µM (active); EC50 [16]: 871 nM (active)

For `O=C(Nc1nc2nc(-c3ccccc3)cc(-c3ccccc3)n2n1)c1ccco1`, which IC50 [17] is on record?
The IC50 was > 80 µM (inactive).

For `ClCc1nnc(-c2ccccc2)o1`, which IC50 [17] is on record?
The IC50 was > 80 µM (inactive).

Which CC50 [11] does the source give for `O=C1N=C(N2CCCC2)S/C1=C\c1cccc(Br)c1` here?
The CC50 was > 40 µM (active).

For `CCCCC/N=C\c1c(C)nn(-c2nc3ccccc3s2)c1O`, which EC50 [18] is on record?
The EC50 was 6.84 µM (active).

And the EC50 [19]?
Its EC50 is 9.33 µM (inconclusive).

And the EC50 [1]?
Its EC50 is 2.01 µM (active).

What about the EC50 (BJ [20]) of the same molecule?
The EC50 was > 133 µM (inactive).

And the EC50 (HT-1080)?
Its EC50 is > 50 µM (not active).

What about the EC50 (BJ [2]) of the same molecule?
The EC50 was 2.32 µM (active).

And the AC50 (HEK293)?
Its AC50 is 3.89 µM (active).

What about the EC50 [21] of the same molecule?
The EC50 was 7.25 µM (active).

And the EC50 (BJ [5])?
Its EC50 is 1.26 µM (active).

What about the EC50 [6] of the same molecule?
Its EC50 is 1930 nM (active).

And the AC50 (INS1)?
Its AC50 is 2.69 µM (active).

And the EC50 (BJ [8])?
The EC50 was 4.84 µM (active).

For `Cc1nc2cc(-c3cccc(F)c3)nn2c(C)c1CCC(=O)NC(C)CCc1ccco1` (stereo not drawn), which EC50 [19] is on record?
Its EC50 is 2.36 µM (active).

And the EC50 (HT-1080)?
The EC50 was > 50 µM (not active).

What about the EC50 [21] of the same molecule?
The EC50 was 5.87 µM (active).

And the EC50 [6]?
Its EC50 is 270 nM (active).

And the IC50 [17]?
Its IC50 is > 80 µM (inactive).

From ChEMBL document CHEMBL1201862, “PubChem BioAssay data set” (2004)
